# Test results published in PubChem BioAssay (NCI).
# Several values for one entry are separate records, joined by “and”; a condition that tells them apart may be missing. Identical values can stand only once.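 Results reflect a 48-hour exposure of cells in 96-well plates to compound at five concentrations. Here, GI50 denotes the concentration required for 50% inhibition of growth. TGI: concentration producing complete growth inhibition.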
# Key:
# Assay in all cases: inhibition of tumour cell growth, NCI panel, 48 h
# 786-0 renal = test system: 786-0 renal
# A498 renal = test system: A498 renal
# A549 NSCLC = test system: A549 NSCLC
# ACHN renal = test system: ACHN renal
# BT-549 breast = test system: BT-549 breast
# CAKI-1 renal = test system: CAKI-1 renal
# CCRF-CEM leukemia = test system: CCRF-CEM leukemia
# COLO 205 colon = test system: COLO 205 colon
# DLD-1 colon = test system: DLD-1 colon
# DMS 114 small cell lung = test system: DMS 114 small cell lung
# DMS 273 small cell lung = test system: DMS 273 small cell lung
# DU-145 prostate = test system: DU-145 prostate
# HCC-2998 colon = test system: HCC-2998 colon
# HCT-116 colon = test system: HCT-116 colon
# HCT-15 colon = test system: HCT-15 colon
# HL-60(TB) leukemia = test system: HL-60(TB) leukemia
# HOP-18 NSCLC = test system: HOP-18 NSCLC
# HOP-62 NSCLC = test system: HOP-62 NSCLC
# HOP-92 NSCLC = test system: HOP-92 NSCLC
# HS 578T breast = test system: HS 578T breast
# IGROV1 ovarian = test system: IGROV1 ovarian
# K-562 leukemia = test system: K-562 leukemia
# KM12 colon = test system: KM12 colon
# KM20L2 colon = test system: KM20L2 colon
# LOX IMVI melanoma = test system: LOX IMVI melanoma
# LXFL 529 NSCLC = test system: LXFL 529 NSCLC
# M19-MEL melanoma = test system: M19-MEL melanoma
# MCF7 breast = test system: MCF7 breast
# MDA-MB-231 breast = test system: MDA-MB-231 breast
# MDA-MB-435 = test system: MDA-MB-435
# MOLT-4 leukemia = test system: MOLT-4 leukemia
# NCI-H226 lung = test system: NCI-H226 lung
# NCI-H23 lung = test system: NCI-H23 lung
# NCI-H460 lung = test system: NCI-H460 lung
# NCI-H522 lung = test system: NCI-H522 lung
# NCI/ADR-RES ovarian = test system: NCI/ADR-RES ovarian
# OVCAR-4 ovarian = test system: OVCAR-4 ovarian
# OVCAR-8 ovarian = test system: OVCAR-8 ovarian
# PC-3 prostate = test system: PC-3 prostate
# RPMI-8226 leukemia = test system: RPMI-8226 leukemia
# RXF-631 renal = test system: RXF-631 renal
# SF-295 CNS = test system: SF-295 CNS
# SF-539 CNS = test system: SF-539 CNS
# SK-MEL-2 melanoma = test system: SK-MEL-2 melanoma
# SK-MEL-28 melanoma = test system: SK-MEL-28 melanoma
# SK-MEL-5 melanoma = test system: SK-MEL-5 melanoma
# SN12C renal = test system: SN12C renal
# SNB-19 CNS = test system: SNB-19 CNS
# SNB-75 CNS = test system: SNB-75 CNS
# SNB-78 CNS = test system: SNB-78 CNS
# SR leukemia = test system: SR leukemia
# SW-620 colon = test system: SW-620 colon
# T-47D breast = test system: T-47D breast
# TK-10 renal = test system: TK-10 renal
# U251 CNS = test system: U251 CNS
# UACC-257 melanoma = test system: UACC-257 melanoma
# UACC-62 melanoma = test system: UACC-62 melanoma
# UO-31 renal = test system: UO-31 renal
# XF 498 CNS = test system: XF 498 CNS
smiles,measurement,setting,value
CC(C)(O)/C=C/C(=O)[C@](C)(O)[C@H]1[C@H](O)C[C@@]2(C)[C@@H]3CC=C4[C@@H](C=C(O)C(=O)C4(C)C)[C@]3(C)C(=O)C[C@]12C,GI50,786-0 renal,0.21 µM
same,GI50,A498 renal,0.189 µM and 0.522 µM
same,TGI,A498 renal,0.392 µM and 1.09 µM
same,TGI,A549 NSCLC,> 5.82 µM and 8.6 µM and 10.3 µM
same,GI50,ACHN renal,0.268 µM
same,TGI,BT-549 breast,0.0362 µM
same,GI50,CAKI-1 renal,0.211 µM and 0.436 µM
same,TGI,CAKI-1 renal,0.473 µM and 0.813 µM
same,GI50,CCRF-CEM leukemia,0.253 µM and 0.709 µM
same,TGI,CCRF-CEM leukemia,2.02 µM and 4.52 µM
same,GI50,COLO 205 colon,0.337 µM
same,TGI,COLO 205 colon,> 10 µM and 7.92 µM and 1.35 µM
same,GI50,DLD-1 colon,0.291 µM and 0.721 µM
same,TGI,DLD-1 colon,> 6.13 µM and 6.58 µM
same,GI50,DMS 114 small cell lung,2 µM
same,TGI,DMS 114 small cell lung,5.21 µM and 9.71 µM
same,GI50,DMS 273 small cell lung,0.282 µM
same,TGI,DMS 273 small cell lung,1.26 µM and 4.29 µM
same,TGI,DU-145 prostate,1.9 µM
same,GI50,HCC-2998 colon,0.319 µM
same,TGI,HCT-116 colon,3.63 µM and 7.31 µM and 1.15 µM
same,GI50,HCT-15 colon,0.273 µM
same,TGI,HCT-15 colon,> 8.33 µM and 3.82 µM
same,GI50,HL-60(TB) leukemia,0.265 µM and 1.1 µM
same,TGI,HL-60(TB) leukemia,0.935 µM and 2.54 µM
same,GI50,HOP-18 NSCLC,0.276 µM and 0.602 µM
same,TGI,HOP-18 NSCLC,1.33 µM and 1.91 µM
same,GI50,HOP-62 NSCLC,0.442 µM
same,GI50,HOP-92 NSCLC,0.255 µM
same,TGI,HS 578T breast,7.66 µM
same,GI50,IGROV1 ovarian,0.27 µM
same,TGI,IGROV1 ovarian,0.688 µM and 4.45 µM and 4.6 µM
same,TGI,K-562 leukemia,> 9.25 µM and 11.2 µM
same,TGI,KM12 colon,> 10 µM and 2.33 µM
same,GI50,KM20L2 colon,0.66 µM
same,TGI,KM20L2 colon,> 5.6 µM
same,GI50,LOX IMVI melanoma,0.574 µM
same,TGI,LOX IMVI melanoma,1.3 µM and 3.18 µM
same,GI50,LXFL 529 NSCLC,0.712 µM
same,TGI,LXFL 529 NSCLC,1.55 µM and 6.67 µM
same,GI50,M19-MEL melanoma,0.929 µM and 2.16 µM
same,TGI,M19-MEL melanoma,> 10 µM
same,TGI,MCF7 breast,10.5 µM
same,TGI,MDA-MB-231 breast,0.0927 µM
same,TGI,MDA-MB-435,0.885 µM
same,TGI,MOLT-4 leukemia,> 7.73 µM and 24.6 µM
same,GI50,NCI-H226 lung,0.252 µM
same,TGI,NCI-H23 lung,> 7.19 µM and 1.15 µM
same,TGI,NCI-H460 lung,> 10 µM and 1.62 µM
same,GI50,NCI-H522 lung,0.278 µM
same,TGI,NCI/ADR-RES ovarian,17.1 µM
same,GI50,OVCAR-4 ovarian,0.343 µM
same,TGI,OVCAR-4 ovarian,3.21 µM and 4.57 µM and 11.5 µM
same,TGI,OVCAR-8 ovarian,> 10 µM and 8.1 µM
same,TGI,PC-3 prostate,5.56 µM
same,TGI,RPMI-8226 leukemia,2.16 µM and 3.57 µM and 11 µM
same,GI50,RXF-631 renal,0.75 µM
same,TGI,RXF-631 renal,> 4.22 µM and 3.61 µM
same,GI50,SF-295 CNS,0.275 µM
same,GI50,SF-539 CNS,0.253 µM
same,TGI,SK-MEL-2 melanoma,0.597 µM and 1.32 µM and 1.16 µM
same,TGI,SK-MEL-28 melanoma,0.581 µM and 1.69 µM and 0.244 µM
same,GI50,SK-MEL-5 melanoma,0.31 µM
same,TGI,SK-MEL-5 melanoma,1.23 µM and 3.62 µM and 1.27 µM
same,GI50,SN12C renal,0.431 µM
same,GI50,SNB-19 CNS,0.407 µM
same,TGI,SNB-19 CNS,1.32 µM and 5.45 µM and 1.19 µM
same,GI50,SNB-75 CNS,0.0721 µM and 0.193 µM
same,GI50,SNB-78 CNS,0.737 µM
same,TGI,SNB-78 CNS,1.61 µM and 5.53 µM
same,GI50,SR leukemia,1.2 µM and 0.33 µM
same,TGI,SR leukemia,> 4.6 µM and 9.08 µM and 14.5 µM
same,TGI,SW-620 colon,> 4.83 µM and 6.87 µM and 1.64 µM
same,TGI,T-47D breast,4.27 µM
same,GI50,TK-10 renal,0.36 µM and 1.68 µM
same,TGI,TK-10 renal,0.77 µM and 3.23 µM
same,GI50,U251 CNS,0.229 µM
same,TGI,UACC-257 melanoma,1.84 µM and 3.94 µM and 1.62 µM
same,TGI,UACC-62 melanoma,4.97 µM and 8.94 µM and 1.76 µM
same,GI50,UO-31 renal,0.195 µM
same,TGI,XF 498 CNS,0.622 µM and 0.698 µM
